In US20210308196A1, “COMPOSITIONS AND METHODS TO PROMOTE HOST DEFENSE AND STIMULATE, EXPAND, AND/OR RESET T CELL REPERTOIRES” (EVOLVE BIOSYSTEMS, INC., priority 2018, published 2021):

Experiments:
[1] = system: vaccine specific antibodies; assay: Vaccine-specific antibodies in infant stool; type: in vivo, human
From the text: Infants from Example 1 received vaccines per the standard schedule. Standard schedule is expected to look like this, as per the CDC (other nations have slightly different schedules; however, the repeated doses over the first year of life is common).
Stool samples were collected at 10 and 12 months for vaccine quantification to coincide with an appropriate post-vaccine time point, and to allow the expansion of vaccine-specific antibodies concentrations to plateau after primary, secondary or tertiary doses [Wright et al. (2014) Journal of Infectious Diseases:209 pg 1628-1634; Brown et al. (2012) J Immunol Methods: 386(1-2): 117-12].
Evaluation of stool for antigen specific responses in infants colonized with B. infantis EVC001. Biophysical antibody profiling assays are performed to assess the Fv and Fc characteristics of vaccine-elicited antibodies raised in infants with and without B. infantis colonization. Presence and phenotype of antibodies in test samples are assessed by staining of bead-bound antibodies with PE-conjugated detection reagents (Anti-IgG, Anti-IgA, and potentially Anti-IgE) and detection via flow cytometry. For the assay, 100 μL each of prepared stool samples from 34 subjects (2 timepoints, up to 62 samples total) that received either received EVC001 or are part of the control group.

[2] = Microbial short chain fatty acids by gas chromatography; type: in vivo, human; conditions: treatment group
From the text: Microbial production of short chain fatty acids (SCFA): SCFA can modulate intestinal inflammation by regulating epithelial barrier function. Microbial short chain fatty acids (SCFA) are extracted by methods previously described and analyzed by gas chromatography HD and found to be elevated in the treatment group

zonulin = assay: Fecal zonulin ELISA; type: in vivo, human; conditions: treatment group
From the text: Fecal zonulin concentrations: Zonulin has been described as the main physiological modulator of intercellular tight junction, and increased levels are indicative of increased gut permeability.

[3] = system: fatty acid binding proteins (FABPs) and glutathione S-transferase (α-GST); assay: Urine FABPs and α-GST (MILLIPLEX MAP luminex assay); type: in vivo, human; conditions: treatment group
From the text: Glutathione S-transferases (α-GST) are enzymes present predominantly in liver, kidney and intestinal epithelial cells that are responsible for detoxification of intracellular toxins through conjugation to glutathione. In states of increased intestinal inflammation and permeability, plasma levels of (α-GST) are a peripheral marker of intestinal epithelial cell injury.

[4] = Bacterial growth and oligosaccharide use in HMO, LNnT or FOS media (growth curves, HPLC); conditions: compared to other Bifidobacterium and Lactobacillus strains
Description: Little is known about the anti-inflammatory effects B. infantis-derived metabolites have on intestinal epithelial cells and how they might protect and maintain mucosal integrity in the infant gut. To investigate whether metabolites from B. infantis grown on HMO and synthetic HMOs can provide protective effects against pathogen-induced inflammation and maintain mucosal integrity compared to other commensal strains that have been previously characterized. B. infantis, B. breve, B. bifidum, and B. longum were grown in media containing pooled HMOs, synthetic Lacto-N-neotetraose (LNnT), or fructo-oligosaccharide (FOS, a readily available oligosaccharide commonly used in baby formulas). Four Lactobacillus plantarum strains were also grown in HMO, LNnT, and FOS media. Spent supernatant was collected and filtered after 48 hours of growth (when the bacteria reached the stationary phase) and evaluated for the remaining oligosaccharide concentration. […] After overnight incubation, cell supernatant was analyzed by ELISA for reductions in pro-inflammatory cytokines, including IL-8 and TNF-alpha. […]

peanut extract allergy = assay: Prevention of murine peanut allergy; type: in vivo, mouse
From the text: Germ-free mouse pups are weaned 3-4 weeks after birth and put on a polysaccharide-free diet that is enriched for Vitamin A. As soon as the mouse pups are weaned, they are gavaged with a dysbiotic (no Bifidobacterium sp. and high proteobacteria) human infant microbiome at Day 1 of the experiment. The mice are divided into 4 groups: control, control plus LNnT, B. infantis, and B. infantis plus LNnT. Mice are given the composition for 21 days. All Groups receive B. infantis or placebo every 3 days by gavage. The LNnT or placebo is added to the drinking water for 21 days. Mice receive intragastric gavage of peanut extract on weekly at 5 mg/mouse for sensitization and then 25 mg/mouse at week 5 for challenge with 10 μg of Cholera toxin to elicit anaphylaxis. Control animals receive intragastric gavage with vehicle only. Anaphylaxis symptoms are evaluated, and then mice are necropsied. Plasma samples are collected for evaluation of histamine and IgE concentrations. White blood cells are isolated for PBMC characterization and evaluation of regulatory T cell population expansion using flow cytometry specific for CD4, CD25, Foxp3, Helios, Neuropilin, CD8, CD44, CD62L, IFNgamma, IL-17, and B cell populations, including Bregs and plasma cells using the following markers: IgM, CD5, CD24, CD19, CD19, CD20, CD34, CD38, CD45R, CD78, CD80, and CD138.

[5] = Nutritional intervention study on autoimmune/allergic disease (T1D) in breastfed infants; type: in vivo, human; conditions: colonized infants
From the text: Administration of activated B. infantis to breastfed neonates and infants leads consistently to high levels of B. infantis in the stool.
This is a randomized, double-blinded, placebo-controlled, parallel group study design (See FIG. 15). After the parent/guardian(s) sign the informed consent, infants will be screened for all the eligibility criteria, and if found eligible will be enrolled in the study. Eligible infants must first undergo an HLA genotyping from a cord blood sample collected at birth. Based on their HLA genotype they will be either placed in group 1 (low risk by HLA genotyping) and group 2 (high risk by HLA genotype). Each group will be randomly assigned to the placebo or treatment groups. […] Parent/guardian(s) of the infants will be instructed to maintain breastfeeding (at least 1 feed/day) for at least 6 months, and up to 12 months if possible during the treatment period. Following the 12-month treatment period, individuals will be followed at regular intervals with study visits and assessments. Individuals will be followed until a sufficient number of events (seroconversion to multiple (2) islet autoantibodies) are accumulated to achieve the planned power for the final analysis. […]

## Bifidobacterium longum subsp. infantis EVC001 [B. infantis EVC001]
[1]; infants persistently colonized for at least the first 100 days of life vs infants without colonization
  Vaccine response: stronger vaccine response
[1]; stool collected at 10 and 12 months, treatment group
  Vaccine specific antibodies in stool: significant elevation
[2]
  Microbial short chain fatty acids (SCFA): elevated
zonulin
  Fecal zonulin concentration: significantly reduced
[3]
  Urine levels of FABPs and α-GST: significantly reduced
[4]
  Growth in HMOs (growth curves): selective growth advantage
Peanut extract allergy; compared to control mice
  Inflammatory responses to the food antigen: reduce
Peanut extract allergy; peanut extract challenge with Cholera toxin
  Anaphylaxis: prevent
[5]
  Rates of childhood-onset autoimmune and allergic disease: decreases
  TReg cell numbers: increases
